Measured values taken from patent publication US20190053492A1, “SUBSTITUTED PYRIDINE COMPOUNDS AS PESTICIDES” (Bayer CropScience Aktiengesellschaft, priority 2016, published 2019).
Read-outs that look alike come from different tables or passages of the source.

Key:
[1] = log P by HPLC on reversed-phase column (C 18), EEC Directive 79/831 Annex V.A8; assay type: physicochemical; settings: 55° C.; for LOGP_HCOOH: log P (HCOOH); for chromatographic logP: reversed-phase HPLC column (C 18)
Protocol: Temperature: 55° C. […] Called log P (HCOOH) in the table. […] Called log P (neutral) in the table.

[2] = system: Phaedon cochleariae; test: Phaedon cochleariae spray test; assay type: in vivo; settings: after 7 days, Chinese cabbage leaf discs
Protocol: Phaedon cochleariae—Spray Test
Solvent: 78.0 parts by weight of acetone • • 1.5 parts by weight of dimethylformamide
Emulsifier: alkylaryl polyglycol ether
To produce a suitable active ingredient formulation, 1 part by weight of active ingredient is dissolved with the specified parts by weight of solvent and made up with water containing an emulsifier concentration of 1000 ppm until the desired concentration is attained. To produce further test concentrations, the formulation is diluted with emulsifier-containing water.
Discs of Chinese cabbage leaves (Brassica pekinensis) are sprayed with an active ingredient formulation of the desired concentration and, after drying, populated with larvae of the mustard beetle (Phaedon cochleariae).
After 7 days, the efficacy in % is determined. 100% means that all the beetle larvae have been killed; 0% means that no beetle larvae have been killed.

[3] = system: Spodoptera frugiperda; test: Spodoptera frugiperda spray test; assay type: in vivo; settings: after 7 days, maize leaf discs
Method in brief: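 Maize leaf discs were sprayed with compound formulated in acetone/DMF and emulsifier-containing water, dried, then infested with Spodoptera frugiperda caterpillars. Percent kill was scored after 7 days, from 100% (all dead) to 0% (none dead).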

[4] = acidic range at pH 2.7, 0.1% aqueous formic acid and acetonitrile, HPLC on reversed-phase column (C 18)
[5] = log P, neutral range, HPLC on reversed-phase column (C 18)
[6] = acidic range pH 2.7, 0.1% aqueous formic acid and acetonitrile, reversed-phase column (C 18)
[7] = log P (neutral), HPLC reversed-phase column (C 18)

Row | Structure (SMILES) | LOGP_HCOOH [1, 4] | LOGP_NEUTRAL [1, 5] | efficacy (beetle larvae killed) ([2]; application rate 100 g/ha) [%] | efficacy (beetle larvae killed) ([2]; application rate 500 g/ha) [%] | efficacy (caterpillars killed) ([3]; application rate 100 g/ha) [%] | efficacy (caterpillars killed) ([3]; application rate 500 g/ha) [%] | chromatographic logP ([1]; pH 2.7, LC-MS acidic range, pH 2.7, 0.1% formic acid/acetonitrile, read-out: log P (acidic) / log P (HCOOH)) | chromatographic logP ([1]; pH 7.8, LC-MS neutral range, pH 7.8, ammonium hydrogencarbonate/acetonitrile, read-out: log P (neutral)) | pest or weed control at 100 g/ha ([2]; Phaedon cochleariae, foliar, 168 h, application rate 100 g/ha, read-out: efficacy (beetle larvae killed)) [%] | pest or weed control at 500 g/ha ([2]; Phaedon cochleariae, foliar, 168 h, application rate 500 g/ha, read-out: efficacy (beetle larvae killed)) [%] | pest or weed control at 500 g/ha ([3]; Spodoptera frugiperda, foliar, 168 h, application rate 500 g/ha, read-out: efficacy (caterpillars killed)) [%] | LOGP_HCOOH [1, 6] | LOGP_NEUTRAL [1, 7]
1 | N#Cc1ccc(CNC(=O)c2cc(-c3ccc(OC(F)(F)C(F)F)cc3)cc(NC(=O)C3CC3)n2)cc1 [Example I-153] | 3.60 | 3.48 | 100 | 100 | 100 | 100 | – | – | – | – | – | – | –
2 | CC(=O)Nc1cc(-c2ccc(OC(F)(F)F)cc2)cc(C(=O)NCc2ccc(C#N)cc2)n1 [Example I-204] | – | 3.27 | 100 | 100 | 100 | 100 | – | – | – | – | – | – | –
3 | N#Cc1c(F)cc(CNC(=O)c2cc(-c3ccc(OC(F)(F)F)cc3)cc(NC(=O)C3CC3)n2)cc1F [Example I-111] | 4.18 | 4.02 | 100 | 100 | 100 | 100 | – | – | – | – | – | – | –
4 | O=C(N[C@H]1CC[C@@H](C(F)(F)F)CC1)c1cc(-c2ccc(OC(F)(F)F)cc2)cc(NC(=O)C2CC2)n1 [Example I-145] | 4.90 | 4.72 | 100 | 100 | 100 | 100 | – | – | – | – | – | – | –
5 | N#Cc1ccc(CNC(=O)c2cc(-c3ccc(C(F)(F)F)cn3)cc(NC(=O)C3CC3)n2)cc1 [Example I-174, N-(4-Cyanobenzyl)-6′-[(cyclopropylcarbonyl)amino]-5-(trifluoromethyl)-2,4′-bipyridine-2′-carboxamide] | 3.25 | 3.22 | – | – | – | – | 3.25 | 3.22 | 100 | 100 | 100 | – | –
6 | N#Cc1ccc(NC(=O)c2cc(-c3ccc(C(F)(F)F)cc3)cc(NC(=O)C3CC3)n2)cc1 [Example I-019] | – | 4.33 | – | 100 | – | 100 | – | – | – | – | – | 4.40 | –
7 | O=C(NCCC(F)(F)F)c1cc(-c2ccc(C(F)(F)C(F)(F)F)c(F)c2)cc(NC(=O)C2CC2)n1 [Example I-246] | – | – | 83 | 100 | 100 | 100 | – | – | – | – | – | 4.37 | 4.32
8 | N#Cc1ccc(CNC(=O)c2cc(-c3cccc(OC(F)(F)F)c3)cc(NC(=O)C3CC3)n2)cc1 [Example I-208] | 3.81 | 3.71 | 100 | 100 | 100 | – | – | – | – | – | – | – | –
9 | O=C(NCc1ccc(Cl)c(F)c1)c1cc(-c2ccc(C(F)(F)F)cc2)cc(NC(=O)C2CC2)n1 [Example I-056] | – | 4.44 | – | 100 | 100 | 100 | – | – | – | – | – | 4.57 | –
10 | N#Cc1ccc(CNC(=O)c2cc(-c3cc(F)c(C(F)(F)C(F)(F)F)c(F)c3)cc(NC(=O)C3CC3)n2)cc1 [Example I-271] | – | – | – | 83 | – | 100 | – | – | – | – | – | 4.23 | –
11 | CC(NC(=O)c1cc(-c2ccc(C(F)(F)F)cc2)cc(NC(=O)C2CC2)n1)C1CC1 (stereo not drawn) [Example I-031] | – | 4.06 | – | 100 | – | 100 | – | – | – | – | – | 4.17 | –
12 | N#Cc1ccc(NC(=O)c2cc(-c3ccc(Cl)cc3)cc(NC(=O)C3CC3)n2)cc1 [Example I-022] | – | 4.29 | 83 | 100 | 100 | 100 | – | – | – | – | – | 4.34 | –
13 | N#CC1CCC(CNC(=O)c2cc(-c3ccc(OC(F)(F)F)cc3)cc(NC(=O)C3CC3)n2)CC1 (stereo not drawn) [Example I-161] | 3.87 | 3.74 | 83 | 100 | 100 | 100 | – | – | – | – | – | – | –
14 | CNC(=O)c1cc(-c2ccc(OC(F)(F)F)cc2)cc(NC(=O)C2CC2)n1 [Example I-127] | 3.02 | – | – | 100 | 83 | 100 | – | – | – | – | – | – | –
15 | CC(C)(C)C(=O)Nc1cc(-c2ccc(OC(F)(F)F)cc2)cc(C(=O)NCc2ccc(C#N)cc2)n1 [Example I-206] | – | 4.45 | – | 100 | 100 | 100 | – | – | – | – | – | – | –
16 | O=C(NC1CC1)c1cc(-c2ccc(S(=O)(=O)C(F)(F)F)cc2)cc(NC(=O)C2CC2)n1 [Example I-103] | – | 3.17 | – | 100 | – | 100 | – | – | – | – | – | 3.28 | –
17 | CCCCNC(=O)c1cc(-c2ccc(C(F)(F)F)cc2)cc(NC(=O)C2CC2)n1 [Example I-037] | – | 3.98 | – | 83 | 83 | 100 | – | – | – | – | – | 4.05 | –
18 | O=C(NC1(C(F)(F)F)CC1)c1cc(-c2ccc(OC(F)(F)F)cc2)cc(NC(=O)C2CC2)n1 [Example I-137] | 4.17 | – | 100 | 100 | 100 | 100 | – | – | – | – | – | – | –
19 | N#Cc1ccc(CNC(=O)c2cc(-c3ccc(OC(F)(F)C(F)C(F)(F)F)cc3)cc(NC(=O)C3CC3)n2)cc1 (stereo not drawn) [Example I-254] | – | – | 100 | 100 | 83 | 100 | – | – | – | – | – | 4.03 | 3.98
20 | N#Cc1ccc(NC(=N)c2cc(-c3ccc(OC(F)(F)F)cc3)cc(NC(=O)C3CC3)n2)cc1 [Example I-261] | – | – | – | 83 | 100 | 100 | – | – | – | – | – | 2.09 | 4.19
21 | N#Cc1ccc(CNC(=O)c2cc(-c3ccc(C(F)(F)C(F)(F)F)c(F)c3)cc(NC(=O)C3CC3)n2)c(F)c1 [Example I-251] | – | – | 83 | 100 | 100 | 100 | – | – | – | – | – | 4.45 | 4.38
